Earlier results, collected in patent US20050042301A1, “Method of use of Xenon-133 for the treatment of AIDS, other viral and non-viral infections” (priority 2003, published 2005).

Settings: stable xenon; b17 says distributed in the body, b20 says formed in vitro

In the case of `[131Xe]` [Xe-131, Xenon-131], the “size range of gas microbubbles (diameter)” value is given as 5-10 microns.
